# Test results as given in the supplement of paper PMC10307832.
# Legend:
# Assay in all cases: relative viability (nuclei count vs DMSO), 5 days (fraction); higher = more cells survive
# ABC-1 = system: ABC-1
# Outline: (§1)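 Medians of duplicate plates are given as relative viability. That measure is the nuclei count in treated wells divided by the count in vehicle wells. Counts were taken on 4× images of lung cancer cell lines in 1536-well plates, 5 days after pin-tool dosing the day after seeding with one drug alone or a fixed anchor-drug dose plus five library-drug doses (not always all listed) in √10 steps.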
# EKVX = system: EKVX
# Outline: as §1
# NCI-H1623 = system: NCI-H1623
# Outline: as §1
# NCI-H1993 = system: NCI-H1993
# Outline: as §1
# NCI-H2085 = system: NCI-H2085
# Outline: as §1
# NCI-H2126 = system: NCI-H2126
# Outline: as §1
# RERF-LC-KJ = system: RERF-LC-KJ
# Outline: as §1
# A549 = system: A549
# Outline: as §1
# Calu-6 = system: Calu-6
# Outline: as §1
# EBC-1 = system: EBC-1
# Outline: as §1
# HCC-44 = system: HCC-44
# Outline: as §1
# IA-LM = system: IA-LM
# Outline: as §1
# NCI-H1299 = system: NCI-H1299
# Outline: as §1
# NCI-H1648 = system: NCI-H1648
# Outline: as §1
# NCI-H1703 = system: NCI-H1703
# Outline: as §1
compound,measurement,setting,value
Nc1ccn([C@@H]2O[C@H](CO)[C@@H](O)[C@@H]2O)c(=O)n1 [Cytarabine] + Cc1nc(Nc2ncc(C(=O)Nc3c(C)cccc3Cl)s2)cc(N2CCN(CCO)CC2)n1 [Dasatinib] (partner 0.075 µM),relative viability,ABC-1; first compound 0.005 µM,0.501
same,relative viability,ABC-1; first compound 0.01581 µM,0.492
same,relative viability,ABC-1; first compound 0.05 µM,0.564
same,relative viability,ABC-1; first compound 0.1581 µM,0.473
same,relative viability,ABC-1; first compound 0.5 µM,0.332
same,relative viability,EKVX; first compound 0.005 µM,0.567
same,relative viability,EKVX; first compound 0.01581 µM,0.416
same,relative viability,EKVX; first compound 0.05 µM,0.456
same,relative viability,EKVX; first compound 0.1581 µM,0.357
same,relative viability,EKVX; first compound 0.5 µM,0.273
same,relative viability,NCI-H1623; first compound 0.005 µM,0.479
same,relative viability,NCI-H1623; first compound 0.01581 µM,0.449
same,relative viability,NCI-H1623; first compound 0.05 µM,0.286
same,relative viability,NCI-H1623; first compound 0.1581 µM,0.471
same,relative viability,NCI-H1623; first compound 0.5 µM,0.291
same,relative viability,NCI-H1993; first compound 0.005 µM,0.74
same,relative viability,NCI-H1993; first compound 0.01581 µM,0.58
same,relative viability,NCI-H1993; first compound 0.05 µM,0.523
same,relative viability,NCI-H1993; first compound 0.1581 µM,0.49
same,relative viability,NCI-H1993; first compound 0.5 µM,0.425
same,relative viability,NCI-H2085; first compound 0.005 µM,0.202
same,relative viability,NCI-H2085; first compound 0.01581 µM,0.263
same,relative viability,NCI-H2085; first compound 0.05 µM,0.2
same,relative viability,NCI-H2085; first compound 0.1581 µM,0.188
same,relative viability,NCI-H2085; first compound 0.5 µM,0.2
same,relative viability,NCI-H2126; first compound 0.005 µM,0.516
same,relative viability,NCI-H2126; first compound 0.01581 µM,0.55
same,relative viability,NCI-H2126; first compound 0.05 µM,0.429
same,relative viability,NCI-H2126; first compound 0.1581 µM,0.378
same,relative viability,NCI-H2126; first compound 0.5 µM,0.32
same,relative viability,RERF-LC-KJ; first compound 0.005 µM,0.689
same,relative viability,RERF-LC-KJ; first compound 0.01581 µM,0.646
same,relative viability,RERF-LC-KJ; first compound 0.05 µM,0.524
same,relative viability,RERF-LC-KJ; first compound 0.1581 µM,0.409
same,relative viability,RERF-LC-KJ; first compound 0.5 µM,0.281
Nc1ccn([C@@H]2O[C@H](CO)[C@@H](O)[C@@H]2O)c(=O)n1 [Cytarabine] + O=C(c1cc(Cc2n[nH]c(=O)c3ccccc23)ccc1F)N1CCN(C(=O)C2CC2)CC1 [Olaparib] (partner 8 µM),relative viability,A549; first compound 0.005 µM,0.318
same,relative viability,A549; first compound 0.01581 µM,0.242
same,relative viability,A549; first compound 0.05 µM,0.0968
same,relative viability,A549; first compound 0.1581 µM,0.0579
same,relative viability,A549; first compound 0.5 µM,0.0331
same,relative viability,ABC-1; first compound 0.005 µM,0.7
same,relative viability,ABC-1; first compound 0.01581 µM,0.756
same,relative viability,ABC-1; first compound 0.05 µM,0.991
same,relative viability,ABC-1; first compound 0.1581 µM,0.672
same,relative viability,ABC-1; first compound 0.5 µM,0.61
same,relative viability,Calu-6; first compound 0.005 µM,0.597
same,relative viability,Calu-6; first compound 0.01581 µM,0.488
same,relative viability,Calu-6; first compound 0.05 µM,0.41
same,relative viability,Calu-6; first compound 0.1581 µM,0.337
same,relative viability,Calu-6; first compound 0.5 µM,0.225
same,relative viability,EBC-1; first compound 0.005 µM,0.725
same,relative viability,EBC-1; first compound 0.01581 µM,0.569
same,relative viability,EBC-1; first compound 0.05 µM,0.476
same,relative viability,EBC-1; first compound 0.1581 µM,0.375
same,relative viability,EBC-1; first compound 0.5 µM,0.241
same,relative viability,EKVX; first compound 0.005 µM,0.819
same,relative viability,EKVX; first compound 0.01581 µM,0.665
same,relative viability,EKVX; first compound 0.05 µM,0.695
same,relative viability,EKVX; first compound 0.5 µM,0.234
same,relative viability,HCC-44; first compound 0.005 µM,1.03
same,relative viability,HCC-44; first compound 0.01581 µM,1.05
same,relative viability,HCC-44; first compound 0.05 µM,0.975
same,relative viability,HCC-44; first compound 0.1581 µM,0.896
same,relative viability,HCC-44; first compound 0.5 µM,0.848
same,relative viability,IA-LM; first compound 0.005 µM,0.626
same,relative viability,IA-LM; first compound 0.01581 µM,0.714
same,relative viability,IA-LM; first compound 0.05 µM,0.55
same,relative viability,IA-LM; first compound 0.1581 µM,0.372
same,relative viability,IA-LM; first compound 0.5 µM,0.268
same,relative viability,NCI-H1299; first compound 0.005 µM,0.991
same,relative viability,NCI-H1299; first compound 0.01581 µM,0.93
same,relative viability,NCI-H1299; first compound 0.05 µM,0.987
same,relative viability,NCI-H1299; first compound 0.1581 µM,0.985
same,relative viability,NCI-H1299; first compound 0.5 µM,0.94
same,relative viability,NCI-H1648; first compound 0.005 µM,0.904
same,relative viability,NCI-H1648; first compound 0.01581 µM,0.793
same,relative viability,NCI-H1648; first compound 0.05 µM,0.954
same,relative viability,NCI-H1648; first compound 0.1581 µM,0.319
same,relative viability,NCI-H1648; first compound 0.5 µM,0.377
same,relative viability,NCI-H1703; first compound 0.005 µM,0.338
same,relative viability,NCI-H1703; first compound 0.01581 µM,0.302
same,relative viability,NCI-H1703; first compound 0.05 µM,0.196
same,relative viability,NCI-H1703; first compound 0.1581 µM,0.0956
same,relative viability,NCI-H1703; first compound 0.5 µM,0.0977
same,relative viability,NCI-H1993; first compound 0.005 µM,1.05
same,relative viability,NCI-H1993; first compound 0.01581 µM,0.933
same,relative viability,NCI-H1993; first compound 0.05 µM,0.998
same,relative viability,NCI-H1993; first compound 0.1581 µM,0.727
same,relative viability,NCI-H1993; first compound 0.5 µM,0.459
same,relative viability,NCI-H2085; first compound 0.005 µM,0.718
same,relative viability,NCI-H2085; first compound 0.01581 µM,0.727
same,relative viability,NCI-H2085; first compound 0.05 µM,0.802
same,relative viability,NCI-H2085; first compound 0.1581 µM,0.655
same,relative viability,NCI-H2085; first compound 0.5 µM,0.61
same,relative viability,NCI-H2126; first compound 0.005 µM,0.923
same,relative viability,NCI-H2126; first compound 0.01581 µM,0.907
same,relative viability,NCI-H2126; first compound 0.05 µM,0.673
same,relative viability,NCI-H2126; first compound 0.1581 µM,0.534
same,relative viability,NCI-H2126; first compound 0.5 µM,0.515
same,relative viability,RERF-LC-KJ; first compound 0.005 µM,0.886
same,relative viability,RERF-LC-KJ; first compound 0.01581 µM,0.806
same,relative viability,RERF-LC-KJ; first compound 0.05 µM,0.655
same,relative viability,RERF-LC-KJ; first compound 0.1581 µM,0.459
same,relative viability,RERF-LC-KJ; first compound 0.5 µM,0.277
